Assay results taken from US5081031A, “Synthetic polypeptide with type IV collagen activity” (Regents of the University of Minnesota, priority 1989, dated 1992).
“Also recorded” adds a separate entry of the source.

Legend:
[1] = biological target: T1, binding of heparin to peptide Hep-II (Homo sapiens, UniProt P08572); assay: Heparin/peptide interaction specificity: competition of 3H-heparin binding to coated peptide Hep-II by glycosaminoglycans; details: Hep-II coated from 500 μg/ml; 3H-heparin 50,000 cpm per well; 2 h 37° C.
T1 construct: made in house; host or cells: chemical solid-phase (Merrifield) synthesis, no expression host
Protocol: To check the specificity of the interaction between heparin and peptide Hep-II or whether the heparin structure was also critical to this interaction, heparin along with other sulfated glucosaminoglycans, dextran and chondroitin sulfate were used in competition experiments. A standard amount of 50 μg of a solution containing 500 μg/ml of peptide Hep-II was coated on 96-well plates as described above. Wells were treated for two hours with 2 mg/ml BSA in wash buffer. Then, a final volume of 50 μl was added to each well, containing a standard amount of […] (50,000 cpm per well) and various amounts of non-radioactive heparin, dextran or chondroitin sulfate. After incubating for two hours at 37° C., the wells were washed and radioactivity was counted as described above in Example 1.

[2] = tested on: melanoma and endothelial cells; details: reported from U.S. Pat. No. 4,876,332; cited from earlier work
[3] = reported from U.S. Pat. No. 4,876,332; cited from earlier work
[4] = tested on: binding of heparin to type IV collagen; assay: Inhibition of heparin binding to type IV collagen coated on plastic by peptide in solution; details: peptide in solution 0.5 mg/ml to 5 μg/ml; 3H-heparin 500 ng per well; type IV collagen coated at 60 μg/ml
Protocol: Peptide Hep-II in solution (and not absorbed to plastic), was screened for the ability to inhibit the binding of heparin to intact, native type IV collagen coated on plastic. This experimental approach avoids problems due to differential coating of peptides in heparin binding assays. Type IV collagen at 60 μg/ml in PBS was coated on 96-well plates, using 50 μl per well and dried overnight at 28° C. The wells were then treated for two hours with 2 mg/ml BSA in wash buffer (described above in Example 1). Peptide Hep-II at various dilutions ranging from 0.5 mg/ml to 5 μg/ml in PBS and CHAPS (cholamido-propyl-dimethyl-ammonio-propane-sulfonate) (a detergent used to avoid non-specific sticking) was co-incubated with a standard amount of ^3 H-heparin (500 ng per well […] final concentration) for two hours at 37° C. and the mixture was then transferred to the […] coated plate (50 μl ) and allowed to incubate for another two hours at 37° C. The wells were then washed and radioactivity was counted as described above. […] Peptide Hep-I is also shown in comparison.

[5] = tested on: bovine aortic endothelial cells; assay: Direct adhesion of endothelial cells to peptide-coated plastic; assay type: cell-based; details: 35S-labeled cells, 120 min. at 37° C.; increasing coating concentrations
Protocol: Bovine aortic endothelial cells were isolated according to the following protocol. Aortas were obtained from a local slaughterhouse, washed in cold phosphate buffered saline (PBS) (136 mM NaCl, 2.6 mM KCl, 15.2 mM Na2 HPO4, pH 7.2) and processed within 2 hours. Crude collagenase (CLS III, 125-145 units per mg dry weight, Cooper Biomedical) was used at 2 mg/ml in Dulbecco's modified Eagle's medium (DMEM) (GIBCO). The vessel was clamped at the distal end, filled with the collagenase-PBS solution and digestion was carried out for 10 minutes. The lumenal contents were harvested, followed by the addition of fresh collagenase for two additional 10-minute periods. The enzyme-cell suspensions were added to an equal volume of DMEM containing 10% fetal bovine serum (FBS) to inhibit the enzyme and spun in a centrifuge at 400× g for 10 minutes. The resulting cell pellet was resuspended in DMEM containing 10% FBS, 100 units/ml of penicillin G, 100 μg/ml of streptomycin and 100 μg/ml of crude fibroblast growth factor. Cells are cultured in 75 cm^2 flasks in a humidified 5% CO2 atmosphere at 37° C. Cultures were fed twice a week with the same medium and cells were used in assays when approximately 75% confluent. […] At the end of the incubation period the wells were washed, bound radioactivity was solubilized by 1% SDS-0.5 N NaOH and quantitated in a Beckman scintillation counter. […]

[6] = tested on: endothelial cells; assay: Direct binding of 125I-labeled peptide Hep-II to cell surfaces; parameters: species or system bovine; details: about 5,000 cells, 15 min. at 4° C., increasing concentrations
Protocol: Endothelial cells were grown in culture as described in example 4 (supra). Cells used for this type of experiment were not labeled with radioactivity. Unlabeled cells were harvested by trypsinization (supra) on the day of the experiment. About 5,000 cells were mixed with 50 μl of a given concentration of peptide Hep-II in solution. Increasing concentrations of peptide Hep-II were used. The cells were incubated with the iodinated peptide for 15 min. at 4° C. and they were then pelleted by centrifugation. The cells were then resuspended and washed 3 times with DMEM containing 2 mg/ml BSA and 50 mM Hepes. Following the washes, the cells were pelleted for a final time in plastic tubes, the supernatant was decanted and the radioactivity of the pellet was quantitated in a Beckman scintillation counter. The binding of peptide Hep-II to endothelial cells is saturable (FIG. 8)----an indication of specificity. These experiments indicate that peptide Hep-II specifically interacts with the surfaces of endothelial cells.

[7] = tested on: endothelial cells; assay: Inhibition of the binding of 125I-labeled peptide Hep-II to the cell surface by excess unlabeled peptide; parameters: species or system bovine; details: unlabeled peptide up to 500-fold excess; 15 min. at 4° C.
Protocol: Endothelial cells were grown in culture as discussed in examples 4 and 5A (supra). On the day of the experiment, the cells were harvested by trypsinization (supra) and were co-incubated with 50 μl of peptide Hep-II. 50 μl a constant amount of ^125 I-labeled peptide Hep-II was mixed with increasing concentrations of unlabeled peptide Hep-II or a control peptide (maximal excess of unlabeled peptide: 500-fold over radiolabeled Hep-II). 50 μl of each concentration of unlabeled peptide which was mixed with radiolabeled Hep-II were then added to cells in suspension (5,000 cells per concentration of peptide). The cells were incubated with the mixture of unlabeled-radiolabeled peptide for 15 min. at 4° C. and they were then pelleted. The cells were subsequently washed and bound radioactivity was quantitated as described in example 4. […] These experiments provide confirmation that a specific interaction occur between endothelial-cell surfaces and peptide Hep-II.

[8] = tested on: melanoma and endothelial cells; assay: Promotion of cell adhesion and spreading (summary statements); assay type: cell-based; details: many cell types, including melanoma and endothelial cells
[9] = Heparin binding to plastic plates coated with peptide (3H-heparin direct binding)
Protocol: The ability of the synthesized peptide Hep-II to interact with heparin when coated on 96-well plastic plates was evaluated. Stock solutions of peptide Hep-II at a concentration of 500 μg/ml were prepared in phosphate-buffered saline containing 0.02% sodium azide. Fifty μl from each concentration was coated on the 96-well plates and left to dry overnight at 28° C. Then, wells were treated for two hours with […] of 2 mg/ml BSA and 6 mM phosphate, 10 mM NaCl, 68 μM CaCl2, pH 6.8 (wash buffer) in order to minimize non-specific binding. Next 50 μl of ^3 H-heparin (10 μg/ml) was added at increasing concentrations (0 to 1400 ng/well) for two hours at 37° C. The wells were then washed three times with wash buffer containing 0.05% Triton X-100 and finally they were incubated for thirty minutes at 60° C. with 200 μl of 0.5 N NaOH and 1% SDS. The amount of ^3 H-heparin bound at each concentration was quantitated with a Beckman LS-3801 liquid scintillation counter. […] Comparison with data obtained in the past using exactly the same methodology indicate that peptide Hep-II is at least 10 times stronger than peptide Hep-I (see FIG. 3B) and about 100 times stronger than type IV collagen, when used in the same coating concentrations.

chondroitin sulfate
competition for the binding of tritiated heparin to peptide Hep-II [1]: cannot mimic this effect except at extremely high concentrations

thr-ala-gly-ser-cys-leu-arg-lys-phe-ser-thr-met (TAGSCLRKFSTM) [Hep-I, peptide from the NCl domain of the α1(IV) chain, position 49-60 from the carboxyl terminus; U.S. Pat. No. 4,876,332]
promotion of cell adhesion (earlier U.S. Pat. No. 4,876,332) [2]: promote cell adhesion
heparin binding (earlier U.S. Pat. No. 4,876,332) [3]: ability to bind heparin

heparin
competition for the binding of tritiated heparin to peptide Hep-II [1]: able to compete for the binding of tritiated heparin to peptide Hep-II at very low concentrations

leu-ala-gly-ser-cys-leu-ala-arg-phe-ser-thr-met (LAGSCLARFSTM) [Hep-II, type IV collagen residues 49-60 from the carboxyl-terminus of the α2 chain of the NCl domain]
inhibition of heparin binding to type IV collagen [4]: strong inhibitor of heparin binding to type IV collagen
adhesion of endothelial cells to coated substrate [5]: promotes substantial adhesion of endothelial cells even at very low plating concentrations
binding of 125I-labeled peptide to endothelial cells [6]: saturable
competition of the binding of radiolabeled Hep-II to the surface of endothelial cells [7]: can be competed only by an excess of unlabeled peptide Hep-II
promotion of cell adhesion/attachment and spreading [8]: potent promoter of cell adhesion and spreading; also recorded: potent promoter of cell attachment and spreading
heparin binding to peptide coated on plastic ([9]; peptide coated on 96-well plates from 500 μg/ml stock, 3H-heparin 0 to 1400 ng/well, 2 h 37° C.): extremely potent promoter of heparin-binding; also recorded: very potent binder of heparin
heparin binding strength relative to type IV collagen ([9]; same coating concentrations, same methodology): about 100 times

dextran
competition for the binding of tritiated heparin to peptide Hep-II [1]: substantially more dextran is needed to achieve similar levels of competition
